Where a SMILES comes first, the peptide text is derived from it. [ ]: non-standard residue; d: D form. The star is where a group is joined. Pro(3S-CH2tBu) = CC(C)(C)C[C@H]1CCN[C@@H]1C(=O)O; Quinaldoyl = O=C(c1ccc2ccccc2n1)*; X1 = c1ncc(CO*)s1
Assays:
[1] = biological target: T1, Caspase-3 (Homo sapiens, UniProt P42574); experiment: Caspase-3 inhibition assay for reversible inhibitors (IC50, Ki); type: biochemical; details: compared with Ac-VDVAD-CHO
T1 construct: the Caspase-2 and Caspase-3 are human recombinant active enzymes; purchased R&D Systems 707-C3-010/CF
T1 sequence (P42574 29-175 limits assumed): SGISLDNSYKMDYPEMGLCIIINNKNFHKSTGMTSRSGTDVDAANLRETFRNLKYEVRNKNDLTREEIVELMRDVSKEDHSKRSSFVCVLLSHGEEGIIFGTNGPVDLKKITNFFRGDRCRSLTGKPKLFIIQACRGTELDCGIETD
T1 sequence (P42574 176-277 limits assumed): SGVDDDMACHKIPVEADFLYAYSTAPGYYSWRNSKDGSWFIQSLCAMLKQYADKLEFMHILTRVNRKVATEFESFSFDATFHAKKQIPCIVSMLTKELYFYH
Experimental: A preliminary step in the characterization of an inhibitor is the determination of its IC50. The IC50 is the necessary concentration of an inhibitor to decrease the enzyme activity by 50% of its maximum and uninhibited value.
The compound, at different concentrations, is incubated with the enzyme and buffer for 30 minutes at 37° C. to allow formation of the Enzyme-Inhibitor complex. The reaction is initiated by addition of buffer and substrate, and then activity is measured over 15 minutes for the determination of initial velocities.
The enzyme and the inhibitor (or DMSO as control) are incubated for 30 minutes at 37° C. The complex thus formed is diluted to 100th in the buffer/substrate mixture and then the activity measurement is started over 20 minutes. The initial rate obtained for the DMSO represents the 100% activity and will serve as a reference for the quantification of the residual activity of the enzyme in the presence of the inhibitor.
The reaction is started over 20 minutes upon addition of the buffer-substrate mixture.
Initial velocity values in RFU·min^−1 are reduced to Specific Activity (SA)values (pmol/min/μg enzyme) from an AMC standard range (1 RFU→0.02 pmol).
The evolution of the ratio 1/SA as a function of 1/[S] makes it possible to obtain the so-called double-inverse graph of Lineweaver-Burk from equation 4 (eq.4) where Vmaxapp and KMapp are the parameters which vary according to the type inhibition and as a function of inhibitor concentration. The intersection of the lines obtained for increasing inhibitor concentrations makes it possible to distinguish different types of inhibitors.
A secondary graph, obtained from the values of the slopes of the Lineweaver-Burk plot as a function of the concentration of inhibitor, makes it possible to obtain the value of the Ki. Its value is given by the abscissa point at the origin. […]

[2] = biological target: T1, Caspase-3; experiment: Caspase-3 inhibition assay for irreversible inhibitors (kinact/KI, continuous method); type: biochemical; details: human recombinant Caspase-3 0.5 nM, 37° C.
Experimental: The efficiency of the comparative compound Δ2Me-TRP601, that is an already known group II Caspase inhibitor (inhibitor of Caspase-2, Caspase-3 and Caspase-7), has been assessed by a similar protocol described in Chauvier et al., 2011 Cell Death Dis 2011, 2:e203.
In this example, the Caspase-2 and Caspase-3 are human recombinant active enzymes that are respectively provided by Enzo Life® (ALX-201-057-U100) and R&D Systems® (707-C3-010/CF).
Caspase-2 is used at a final concentration of 0.1 nM in a “Caspase-2 buffer” containing 20 mM HEPES (pH 7.4), 5 mM DTT, 2 mM EDTA, 0.1% CHAPS and 800 mM succinate. […]
The peptide substrates used for the enzymatic activity measurements are Ac-DEVD-AMC and Ac-VDVAD-AMC commercialized by EnzoLife® (respectively referenced ALX-260-031-M005 and ALX-260-060-M005). […] The releasing of AMC enables to follow the enzymatic activity in fluorescence unit RFU over time in a 96-wells microplate.
The fluorescence values are measured at 37° C. with a spectrofluorometer with a microplate reader BMG FLUOstar OPTIMA. […]
The inhibitory properties of the tested compounds are evaluated by the determination of the kinact/KI ratio regarding either Caspase-2 or Caspase-3 wherein: • kinact is the maximal inactivation rate constant, and • KI is the dissociation constant according to: […]
The activities of the enzyme are measured between 45 and 60 minutes. […]

| Structure (SMILES) | potency on Caspase-3 [1] | k3/KI Casp3 [2] |
| --- | --- | --- |
| CC(C)[C@H](NC(=O)c1ccc2ccccc2n1)C(=O)N[C@@H](CC(=O)O)C(=O)N[C@H](C(=O)N1CC[C@H](CC(C)(C)C)[C@H]1C(=O)N[C@@H](CC(=O)O)C(=O)OCc1cncs1)C(C)C [Compound 3, (S)-4-(((S)-1-((2S,3S)-2-(((S)-3-carboxy-1-oxo-1-(thiazol-5 - ylmethoxy)propan-2-yl)carbamoyl)-3-neopenthylpyrrolidin-1-yl)-3-methyl-1-oxobutan-2-yl)amino)-3-((S)-3-methyl-2-(quinoline-2-carboxamido)butanamido)-4-oxobutanoic acid] (Quinaldoyl-VDV[Pro(3S-CH2tBu)]D-X1) | considerably less potent on Caspase-3 than Ac-VDVAD-CHO | – |
| CC(C)[C@H](NC(=O)c1ccc2ccccc2n1)C(=O)N[C@@H](CC(=O)O)C(=O)N[C@H](C(=O)N1CC[C@H](CC(C)(C)C)[C@H]1C(=O)N[C@@H](CC(=O)O)C(=O)COc1c(F)cccc1F)C(C)C (single isomer, unassigned) [Compound 2 enantiomer a] | – | 2 625 M^−1 · s^−1 |

From patent US11407741B2, “Compounds and their use as selective inhibitors of caspase-2” (priority 2017, dated 2022)
